Patent publication US20260356851A1, “TRICYCLIC COMPOUNDS AND USES THEREOF” (HUTCHMED LIMITED, priority 2023, published 2026)
pIC50: −log10 of the molar value.

Experiments:
Type in all cases: cell-based
[1] = biological target: T1, pERK1/2 (Thr202/Tyr204), PANC-1 (KRAS G121D) (Homo sapiens, UniProt P01116, G12D); assay: Assay of intracellular pERK1/2 (Thr202/Tyr204) phosphorylation in PANC-1 cells (KRAS G12D); details: pERK1/2, 2 days, read-out: PANC-1 (KRAS G12D) IC50
T1 construct: pERK1/2 HTRF read-out
Procedure, shortened: (§1)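 Cells (10000-12000/well) exposed to 3-fold compound dilutions for 2 days at 37 °C, then lysed; pERK1/2 (Thr202/Tyr204) measured by HTRF with d2 and cryptate antibodies, 665/615 nm ratio.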

[2] = biological target: T2, pERK1/2 (Thr202/Tyr204), NCI-1H441 (KRAS G12V) (Homo sapiens, UniProt P01116, G12V); assay: Assay of intracellular pERK1/2 (Thr202/Tyr204) phosphorylation in NCI-H441 cells (KRAS G12V); details: pERK1/2, 2 days, read-out: NCI-H441 (KRAS G12V) IC50
T2 construct: pERK1/2 HTRF read-out
Procedure, shortened: as §1

[3] = biological target: T3, pERK1/2 (Thr202/Tyr204), NCI-1H358 (KRAS G12C) (Homo sapiens, UniProt P01116, G12C); assay: Assay of intracellular pERK1/2 (Thr202/Tyr204) phosphorylation in NCI-H358 cells (KRAS G12C); details: pERK1/2, 2 days, read-out: NCI-H358 (KRAS G12C) IC50
T3 construct: pERK1/2 HTRF read-out
Procedure, shortened: as §1

T3 sequence (P01116 1-188 isoform P01116-2 G12C): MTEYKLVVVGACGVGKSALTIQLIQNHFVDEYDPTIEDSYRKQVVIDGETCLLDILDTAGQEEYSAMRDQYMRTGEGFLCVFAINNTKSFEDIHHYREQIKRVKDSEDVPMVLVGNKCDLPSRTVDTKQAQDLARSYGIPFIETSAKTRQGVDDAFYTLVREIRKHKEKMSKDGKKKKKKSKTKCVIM
T1 sequence (P01116 1-188 isoform P01116-2 G12D): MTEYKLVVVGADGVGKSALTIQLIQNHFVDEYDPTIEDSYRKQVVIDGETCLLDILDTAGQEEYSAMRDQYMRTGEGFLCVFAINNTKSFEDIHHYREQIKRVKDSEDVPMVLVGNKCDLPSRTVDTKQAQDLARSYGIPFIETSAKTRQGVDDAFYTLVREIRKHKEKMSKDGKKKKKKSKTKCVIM
T2 sequence (P01116 1-188 isoform P01116-2 G12V): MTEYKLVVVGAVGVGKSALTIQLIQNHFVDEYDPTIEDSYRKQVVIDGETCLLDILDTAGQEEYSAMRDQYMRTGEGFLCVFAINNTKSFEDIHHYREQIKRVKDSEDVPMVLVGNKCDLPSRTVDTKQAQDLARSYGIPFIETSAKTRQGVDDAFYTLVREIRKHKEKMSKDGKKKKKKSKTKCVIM

Row | pIC50 [1] | pIC50 [2] | pIC50 [3] | Compound
1 | 8.00 | 9.00 | 9.40 | [2H]C1([2H])Oc2nc(-c3cc(N)c(F)c(Cl)c3C(F)(F)F)c(F)c3nc(OC[C@@H]4C[C@@H](F)CN4C)nc(c23)N(C(C)c2cccnc2N)C1([2H])[2H] (single isomer, unassigned) [Compound 208, 3-((R or S)-1-(5-(5-amino-3-chloro-4-fluoro-2-(trifluoromethyl)phenyl)-4-fluoro-2-(((2S,4R)-4-fluoro-1-methylpyrrolidin-2-yl)methoxy)-8,9-dihydro-10H-7-oxa-1,3,6,10-tetraazacyclohepta[de]naphthalen-10-yl-8,8,9,9-d4)ethyl)pyridin-2-amine]
2 | < 7.00 | 7.35 | 7.89 | [2H]C1([2H])Oc2nc(-c3cc(N)c(F)c(Cl)c3C(F)(F)F)c(F)c3nc(OC[C@@H]4C[C@@H](F)CN4C)nc(c23)N(C(C)c2cccnc2N)C1([2H])[2H] (single isomer, unassigned) [Compound 209, 3-((R or S)-1-(5-(5-amino-3-chloro-4-fluoro-2-(trifluoromethyl)phenyl)-4-fluoro-2-(((2S,4R)-4-fluoro-1-methylpyrrolidin-2-yl)methoxy)-8,9-dihydro-10H-7-oxa-1,3,6,10-tetraazacyclohepta[de]naphthalen-10-yl-8,8,9,9-d4)ethyl)pyridin-2-amine]
3 | 8.22 | 9.22 | 9.52 | CCC(c1cccnc1N)N1CCOc2nc(-c3cc(N)c(F)c(C)c3C(F)(F)F)c(F)c3nc(OC[C@@]45CCCN4C[C@H](F)C5)nc1c23 (single isomer, unassigned) [Compound 212, 3-((R or S)-1-(5-(5-amino-4-fluoro-3-methyl-2-(trifluoromethyl)phenyl)-4-fluoro-2-(((2R,7aS)-2-fluorotetrahydro-1H-pyrrolizin-7a(5H)-yl)methoxy)-8,9-dihydro-10H-7-oxa-1,3,6,10-tetraazacyclohepta[de]naphthalen-10-yl)propyl)pyridin-2-amine]
4 | < 7.00 | 7.74 | 7.89 | CC[C@@H](c1cccnc1N)N1CCOc2nc(-c3cc(N)c(F)c(C)c3C(F)(F)F)c(F)c3nc(OC[C@@]45CCCN4C[C@H](F)C5)nc1c23 (single isomer, unassigned) [Compound 213, 3-((R or S)-1-(5-(5-amino-4-fluoro-3-methyl-2-(trifluoromethyl)phenyl)-4-fluoro-2-(((2R,7aS)-2-fluorotetrahydro-1H-pyrrolizin-7a(5H)-yl)methoxy)-8,9-dihydro-10H-7-oxa-1,3,6,10-tetraazacyclohepta[de]napthalen-10-yl)propyl)pyridin-2-amine]
5 | 8.40 | 9.52 | 9.70 | CCC(c1cccnc1N)N1CCOc2nc(-c3cc(N)c(F)c(Cl)c3C(F)(F)F)c(F)c3nc(OC[C@@]45CCCN4C[C@H](F)C5)nc1c23 (single isomer, unassigned) [Compound 214, 3-((R or S)-1-(5-(5-amino-3-chloro-4-fluoro-2-(trifluoromethyl)phenyl)-4-fluoro-2-(((2R,7aS)-2-fluorotetrahydro-1H-pyrrolizin-7a(5H)-yl)methoxy)-8,9-dihydro-10H-7-oxa-1,3,6,10-tetraazacyclohepta[de]naphthalen-10-yl)propyl)pyridin-2-amine]
6 | < 7.00 | 7.44 | 7.68 | CCC(c1cccnc1N)N1CCOc2nc(-c3cc(N)c(F)c(Cl)c3C(F)(F)F)c(F)c3nc(OC[C@@]45CCCN4C[C@H](F)C5)nc1c23 (single isomer, unassigned) [Compound 215, 3-((R or S)-1-(5-(5-amino-3-chloro-4-fluoro-2-(trifluoromethyl)phenyl)-4-fluoro-2-(((2R,7aS)-2-fluorotetrahydro-1H-pyrrolizin-7a(5H)-yl)methoxy)-8,9-dihydro-10H-7-oxa-1,3,6,10-tetraazacyclohepta[de]naphthalen-10-yl)propyl)pyridin-2-amine]
7 | 7.32 | 8.70 | 8.70 | CCC(c1cccnc1N)N1CCOc2nc(-c3cc(N)c(F)c(F)c3C(F)(F)F)c(F)c3nc(OC[C@@]45CCCN4C[C@H](F)C5)nc1c23 (single isomer, unassigned) [Compound 216, 3-((R or S)-1-(5-(5-amino-3,4-difluoro-2-(trifluoromethyl)phenyl)-4-fluoro-2-(((2R,7aS)-2-fluorotetrahydro-1H-pyrrolizin-7a(5H)-yl)methoxy)-8,9-dihydro-10H-7-oxa-1,3,6,10-tetraazacyclohepta[de]naphthalen-10-yl)propyl)pyridin-2-amine]
8 | < 7.00 | < 7.00 | < 7.00 | CCC(c1cccnc1N)N1CCOc2nc(-c3cc(N)c(F)c(F)c3C(F)(F)F)c(F)c3nc(OC[C@@]45CCCN4C[C@H](F)C5)nc1c23 (single isomer, unassigned) [Compound 217, 3-((R or S)-1-(5-(5-amino-3,4-difluoro-2-(trifluoromethyl)phenyl)-4-fluoro-2-(((2R,7aS)-2-fluorotetrahydro-1H-pyrrolizin-7a(5H)-yl)methoxy)-8,9-dihydro-10H-7-oxa-1,3,6,10-tetraazacyclohepta[de]naphthalen-10-yl)propyl)pyridin-2-amine]
9 | 8.70 | 9.40 | 10.00 | [2H]C1([2H])CC[C@@]2(COc3nc4c5c(nc(-c6cc(N)c(F)c(Cl)c6C(F)(F)F)c(F)c5n3)OC([2H])([2H])C([2H])([2H])N4[C@H](C)c3cccnc3N)C[C@@H](F)CN12 (single isomer, unassigned) [Compound 222, 3-((R or S)-1-(5-(5-amino-3-chloro-4-fluoro-2-(trifluoromethyl)phenyl)-4-fluoro-2-(((2R,7aS)-2-fluorotetrahydro-1H-pyrrolizin-7a(5H)-yl-5,5-d2)methoxy)-8,9-dihydro-10H-7-oxa-1,3,6,10-tetraazacyclohepta[de]naphthalen-10-yl-8,8,9,9-d4)ethyl)pyridin-2-amine]
10 | 7.70 | 8.15 | 8.70 | [2H]C1([2H])CC[C@@]2(COc3nc4c5c(nc(-c6cc(N)c(F)c(Cl)c6C(F)(F)F)c(F)c5n3)OC([2H])([2H])C([2H])([2H])N4C(C)c3cccnc3N)C[C@@H](F)CN12 (single isomer, unassigned) [Compound 223, 3-((R or S)-1-(5-(5-amino-3-chloro-4-fluoro-2-(trifluoromethyl)phenyl)-4-fluoro-2-(((2R,7aS)-2-fluorotetrahydro-1H-pyrrolizin-7a(5H)-yl-5,5-d2)methoxy)-8,9-dihydro-10H-7-oxa-1,3,6,10-tetraazacyclohepta[de]naphthalen-10-yl-8,8,9,9-d4)ethyl)pyridin-2-amine]
11 | 8.70 | 9.22 | 9.70 | CC(c1cccnc1N)N1CCOc2nc(-c3cc(N)c(F)c(Cl)c3C(F)(F)F)c(F)c3nc(OC[C@@]45CCCN4CC4(CC4(F)F)C5)nc1c23 (single isomer, unassigned) [Compound 227]
12 | 9.10 | 9.30 | 9.70 | Cc1c(F)c(N)cc(-c2nc3c4c(nc(OC[C@@]56CCCN5CC5(CC5(F)F)C6)nc4c2F)N(C(C)c2cccnc2N)CCO3)c1C(F)(F)F (single isomer, unassigned) [Compound 228]
13 | < 7.00 | < 7.00 | < 7.00 | Cc1c(F)c(N)cc(-c2nc3c4c(nc(OC[C@@]56CCCN5C[C@H](F)C6)nc4c2F)N(C(C)c2cccnc2N)C[C@@H](C)O3)c1C(F)(F)F (single isomer, unassigned) [Compound 247, 3-((R or S)-1-((R)-5-(5-amino-4-fluoro-3-methyl-2-(trifluoromethyl)phenyl)-4-fluoro-2-(((2R,7aS)-2-fluorotetrahydro-1H-pyrrolizin-7a(5H)-yl)methoxy)-8-methyl-8,9-dihydro-10H-7-oxa-1,3,6,10-tetraazacyclohepta[de]naphthalen-10-yl)ethyl)pyridin-2-amine]
14 | 8.10 | 9.00 | 9.40 | Cc1c(F)c(N)cc(-c2nc3c4c(nc(OC[C@@]56CCCN5C[C@H](F)C6)nc4c2F)N(C(C)c2cccnc2N)C[C@@H](C)O3)c1C(F)(F)F (single isomer, unassigned) [Compound 248, 3-((R or S)-1-((R)-5-(5-amino-4-fluoro-3-methyl-2-(trifluoromethyl)phenyl)-4-fluoro-2-(((2R,7aS)-2-fluorotetrahydro-1H-pyrrolizin-7a(5H)-yl)methoxy)-8-methyl-8,9-dihydro-10H-7-oxa-1,3,6,10-tetraazacyclohepta[de]naphthalen-10-yl)ethyl)pyridin-2-amine]
15 | 9.40 | 9.52 | 10.00 | Cc1c(F)c(N)cc(-c2nc3c4c(nc(OC[C@@]56CCCN5C[C@H](F)C6)nc4c2F)N(C(C)c2cccnc2N)[C@@H](C)CO3)c1C(F)(F)F (single isomer, unassigned) [Compound 250, 3-((R or S)-1-((S)-5-(5-amino-4-fluoro-3-methyl-2-(trifluoromethyl)phenyl)-4-fluoro-2-(((2R,7aS)-2-fluorotetrahydro-1H-pyrrolizin-7a(5H)-yl)methoxy)-9-methyl-8,9-dihydro-10H-7-oxa-1,3,6,10-tetraazacyclohepta[de]naphthalen-10-yl)ethyl)pyridin-2-amine]
